# Values quoted from earlier work in patent publication US20100151020A1, “DRUG […] SYSTEM FOR ZERO ORDER, ZERO ORDER BIPHASIC, ASCENDING OR […] […] OF METHYLPHENIDATE” (priority 2008, published 2010).
# Counter-ions that a name gives are not always drawn. Like-named read-outs stand apart in the source and are kept apart here.
# Legend:
# [1] = reports
# [2] = chronic methylphenidate dosing
compound,measurement,setting,value
COC(=O)C(c1ccccc1)C1CCCCN1 (stereo not shown) [methylphenidate HCl],AD/HD patients responding positively,[1],70-90%
same,drug excreted,adults,80%
same,drug excreted,children,67%
same,time to peak,"children, immediate release",1.9 h
same,"time to peak, range","children, immediate release",0.3 to 4.4 h
same,pharmacokinetic half-life,immediate release,2 to 3 h
same,primary adverse events,[2],"nervousness, insomnia, and appetite suppression"
